Test: Biodistribution studies in normal mice
Format: in vivo, male ICR mice
Details: tail vein injection, avg of 3 mice ± SD
Description: While under isoflurane anesthesia, 0.15 mL of a saline solution containing the F-18 tracers (10-20 uCi) was injected directly into the lateral tail vein of male ICR mice. The mice (n=3 for each time point) were sacrificed by cervical dislocation at 2, 30, 60 and 120 minutes post-injection. The organs of interest were removed, weighed and assayed for radioactivity content with an automatic gamma counter. The percentage dose per organ was calculated by a comparison of the tissue counts to suitably diluted aliquots of the injected material. Total activities of blood and bone were calculated under the assumption that they were 7% and 14% of the body weight, respectively. The % dose/g of samples was calculated by comparing the sample counts with the count of the diluted initial dose.

SMILES	Blood biodistribution (2 min) [% dose/g]	Blood biodistribution (30 min) [% dose/g]	Blood biodistribution (1 hr) [% dose/g]	Blood biodistribution (2 hr) [% dose/g]	Bone biodistribution (2 min) [% dose/g]	Bone biodistribution (30 min) [% dose/g]	Bone biodistribution (1 hr) [% dose/g]	Bone biodistribution (2 hr) [% dose/g]	Brain biodistribution (2 min) [% dose/g]	Brain biodistribution (30 min) [% dose/g]	Brain biodistribution (1 hr) [% dose/g]	Brain biodistribution (2 hr) [% dose/g]	Heart biodistribution (2 min) [% dose/g]	Heart biodistribution (30 min) [% dose/g]	Heart biodistribution (1 hr) [% dose/g]	Heart biodistribution (2 hr) [% dose/g]	Kidney biodistribution (2 min) [% dose/g]	Kidney biodistribution (30 min) [% dose/g]	Kidney biodistribution (1 hr) [% dose/g]	Kidney biodistribution (2 hr) [% dose/g]	also measured
CNc1ccc(-c2nc3ccc(OCCOCCOCCOCCOCCOCC[18F])cc3s2)cc1 [[^18F]5c]	3.54 ± 0.12	2.52 ± 0.29	2.46 ± 0.29	1.54 ± 0.19	1.68 ± 0.60	1.20 ± 0.29	1.68 ± 0.17	2.31 ± 0.37	2.57 ± 0.12	1.69 ± 0.23	1.80 ± 0.25	1.29 ± 0.17	9.37 ± 0.18	2.11 ± 0.27	1.82 ± 0.28	1.19 ± 0.15	23.00 ± 0.89	5.01 ± 0.84	3.50 ± 0.86	1.27 ± 0.08	Liver biodistribution (2 min): 12.43 ± 1.11 % dose/g; Liver biodistribution (30 min): 3.94 ± 0.29 % dose/g; Liver biodistribution (1 hr): 2.86 ± 0.38 % dose/g; Liver biodistribution (2 hr): 1.67 ± 0.32 % dose/g; Lung biodistribution (2 min): 4.68 ± 0.27 % dose/g; Lung biodistribution (30 min): 2.41 ± 0.37 % dose/g; Lung biodistribution (1 hr): 2.08 ± 0.32 % dose/g; Lung biodistribution (2 hr): 1.24 ± 0.16 % dose/g; Muscle biodistribution (2 min): 1.60 ± 0.98 % dose/g; Muscle biodistribution (30 min): 1.87 ± 0.38 % dose/g; Muscle biodistribution (1 hr): 1.52 ± 0.24 % dose/g; Muscle biodistribution (2 hr): 0.93 ± 0.07 % dose/g; Skin biodistribution (2 min): 0.95 ± 0.12 % dose/g; Skin biodistribution (30 min): 2.14 ± 1.03 % dose/g; Skin biodistribution (1 hr): 1.42 ± 0.14 % dose/g; Skin biodistribution (2 hr): 0.91 ± 0.10 % dose/g; Spleen biodistribution (2 min): 4.74 ± 0.23 % dose/g; Spleen biodistribution (30 min): 2.05 ± 0.18 % dose/g; Spleen biodistribution (1 hr): 1.87 ± 0.26 % dose/g; Spleen biodistribution (2 hr): 1.13 ± 0.16 % dose/g
CNc1ccc(-c2nc3ccc(OCCOCCOCC[18F])cc3s2)cc1 [[^18F]5b]	6.29 ± 1.19	3.41 ± 0.07	3.91 ± 0.23	4.04 ± 0.45	2.13 ± 0.16	1.48 ± 0.03	1.82 ± 0.04	2.41 ± 0.28	5.53 ± 0.56	2.33 ± 0.15	2.18 ± 0.09	1.96 ± 0.13	6.26 ± 1.12	3.22 ± 0.33	3.06 ± 0.15	2.50 ± 0.09	9.02 ± 0.77	5.27 ± 0.77	3.97 ± 0.25	2.97 ± 0.07	Liver biodistribution (2 min): 21.84 ± 1.56 % dose/g; Liver biodistribution (30 min): 13.75 ± 1.88 % dose/g; Liver biodistribution (1 hr): 11.22 ± 0.82 % dose/g; Liver biodistribution (2 hr): 9.13 ± 1.11 % dose/g; Lung biodistribution (2 min): 7.35 ± 1.50 % dose/g; Lung biodistribution (30 min): 3.94 ± 0.29 % dose/g; Lung biodistribution (1 hr): 3.63 ± 0.25 % dose/g; Lung biodistribution (2 hr): 3.24 ± 0.10 % dose/g; Muscle biodistribution (2 min): 1.40 ± 0.11 % dose/g; Muscle biodistribution (30 min): 1.92 ± 0.34 % dose/g; Muscle biodistribution (1 hr): 1.58 ± 0.13 % dose/g; Muscle biodistribution (2 hr): 1.38 ± 0.11 % dose/g; Skin biodistribution (2 min): 2.09 ± 0.22 % dose/g; Skin biodistribution (30 min): 2.27 ± 0.17 % dose/g; Skin biodistribution (1 hr): 1.92 ± 0.13 % dose/g; Skin biodistribution (2 hr): 1.57 ± 0.06 % dose/g; Spleen biodistribution (2 min): 5.24 ± 0.67 % dose/g; Spleen biodistribution (30 min): 2.66 ± 0.14 % dose/g; Spleen biodistribution (1 hr): 2.84 ± 0.13 % dose/g; Spleen biodistribution (2 hr): 2.46 ± 0.05 % dose/g
CNc1ccc(-c2nc3ccc(OCCOCC[18F])cc3s2)cc1 [[^18F]5a]	3.37 ± 0.46	3.60 ± 0.13	4.55 ± 0.40	4.38 ± 0.14	1.69 ± 0.21	2.28 ± 0.20	3.17 ± 0.39	6.35 ± 1.32	10.27 ± 1.30	4.59 ± 0.47	3.94 ± 0.04	3.86 ± 0.35	8.32 ± 0.37	3.49 ± 0.27	3.81 ± 0.25	3.59 ± 0.03	13.02 ± 1.04	4.54 ± 0.62	3.98 ± 0.24	3.18 ± 0.16	Liver biodistribution (2 min): 19.02 ± 1.06 % dose/g; Liver biodistribution (30 min): 7.98 ± 0.60 % dose/g; Liver biodistribution (1 hr): 6.35 ± 0.46 % dose/g; Liver biodistribution (2 hr): 5.05 ± 0.43 % dose/g; Lung biodistribution (2 min): 7.79 ± 0.34 % dose/g; Lung biodistribution (30 min): 3.91 ± 0.28 % dose/g; Lung biodistribution (1 hr): 3.84 ± 0.55 % dose/g; Lung biodistribution (2 hr): 3.63 ± 0.15 % dose/g; Muscle biodistribution (2 min): 0.82 ± 0.12 % dose/g; Muscle biodistribution (30 min): 2.83 ± 0.22 % dose/g; Muscle biodistribution (1 hr): 2.76 ± 0.17 % dose/g; Muscle biodistribution (2 hr): 2.36 ± 0.11 % dose/g; Skin biodistribution (2 min): 1.08 ± 0.22 % dose/g; Skin biodistribution (30 min): 3.14 ± 0.22 % dose/g; Skin biodistribution (1 hr): 3.15 ± 0.28 % dose/g; Skin biodistribution (2 hr): 2.62 ± 0.16 % dose/g; Spleen biodistribution (2 min): 6.92 ± 0.79 % dose/g; Spleen biodistribution (30 min): 3.93 ± 0.29 % dose/g; Spleen biodistribution (1 hr): 3.87 ± 0.61 % dose/g; Spleen biodistribution (2 hr): 3.32 ± 0.16 % dose/g
